Test results published in US8129527B2, “Analogs of dehydrophenylahistins and their therapeutic use” (Nereus Pharmacuticals, Inc., priority 2006, dated 2012).
pIC50: −log10 of the molar value. Where two headings read alike, the source gives them in different places.

What was measured:
MAP-rich microtubules = experiment: Microtubule mean length distributions, transmission electron microscopy; type: biochemical, bovine; settings: in words
Method: Transmission electron microscopy was used to determine the mean length distribution of microtubules in the absence or presence of tested agent. At 75 minutes and prior to sedimentation, 10 μl aliquots from the polymer mass experiments were fixed by dilution into 290 μl PEM100-buffered 0.2% glutaraldehyde. Thirty microliters of fixed sample was settled onto formvar-coated 150 ICG mesh electron microscope grids for 90 seconds. Excess sample was wicked off with Whatman filter paper. Thirty microliters of cytochrome C (1 mg/ml) was applied for 30 seconds to enhance protofilament resolution and facilitate negative staining. Uranyl acetate (1.5%) was applied for 20 seconds and the excess was wicked off Grids were viewed in a Jeol electron microscope-1200 EX11 at 2000× and 30,000× magnification. The Zeiss MOPIII was used to determine microtubule length distributions and mean lengths for at least 100 microtubules per sample.

HuVEC cells = experiment: Tubulin staining assay, 200 nM, 30 min (Example 15); type: cell-based, human
Method: Human umbilical vein endothelial cells (HuVECs; Cambrex CC2519A) were maintained at subconfluent densities in EGM-2 (Cambrex) media. […] For tubulin staining assays, HuVEC cells were seeded at a density of 3×10^4 cells/ml in EGM-2 on tissue culture compatible coverslips (Fisher). The plates were returned to the incubator for 2 days.
Stock (20 mM) solutions of the test compounds were prepared in 100% DMSO. 400× concentrated dilutions of the compounds were prepared in 100% DMSO. 5 μl volumes of the dilutions were added to individual wells resulting in a final concentration of 200 nM. […] The plates were returned to the incubator for 30 minutes.
The cells were rinsed in dPBS before fixation in 10% (v/v) neutral buffered formalin for 10 minutes at room temperature. Following fixation, α-tubulin was visualized by indirect immunofluorescence. Specifically, the cells were permeabilized in 0.2% (v/v) triton X-100/dPBS for 10 minutes. The cells were washed prior to transferring the coverslips to a humidified chamber, the coverslips were blocked for two hours in antibody buffer (2% (w/v) BSA/0.1% (v/v) Tween 20/dPBS). The coverslips were incubated with 50 μl of 0.1 μg/ml mouse α-tubulin (Molecular Probes) in antibody buffer for 1 hour before washing and incubation with 50 μl of 1 μg/ml goat anti-mouse FITC (Jackson ImmunoResearch Laboratories) for one hour in the dark. […]

P22 rat sarcoma [1] = experiment: Tumor necrosis in the P22 rat sarcoma model; settings: 7.5 and 15 mg/kg IP, 24 hours post-dose
[2] = test system: MCF7 cells, GFP-alpha-tubulin; experiment: Analysis of microtubule dynamics, time-lapse microscopy; type: cell-based, human; settings: concentrations effecting 25% or 50% of maximal mitotic block
MCF7 cells = experiment: Immunofluorescence microscopy of spindle and interphase microtubules; type: cell-based, human; settings: at the IC50 for mitotic block, 20 hours
Method: MCF7 human breast carcinoma cells (American Type Culture Collection, Manassas, Va.) stably transfected with GFP-alpha-tubulin (Clontech, Palo Alto, Calif.) were cultured in Dulbecco's modified Eagle's medium supplemented with 5% fetal bovine serum, 0.1% penicillin/streptomycin and nonessential amino acids (Sigma) in 250-ml tissue culture flasks or 35-mm six-well plates (doubling time, 29 hours) at 37° C. in 5% CO2.
Cells were prepared as for mitotic progression, except that cells were seeded onto poly-L-lysine (50 μg/ml, Sigma) treated coverslips. On the day of staining, cells were rinsed in PBS and fixed in 10% formalin overnight at 37° C. Cells were rinsed in PBS, permeabilized in methanol at −20° C., and hydrated with PBS. Coverslips were treated with 20% normal goat serum in PBS/BSA (1%) for 1 h at room temperature. Cells were incubated in a mouse monoclonal cocktail of anti-alpha- and beta-tubulin, DM1A/DM1B diluted in PBS/BSA for 1 hour at room temperature, then stained with FITC-conjugated secondary antibody and DAPI. Coverslips were mounted using Prolong antifade media (Molecular Probes, Eugene Oreg.).

MCF-7 human breast tumor = experiment: MCF-7 Human Breast Tumor Xenograft Model; type: in vivo, nude mice; settings: Breast MCF-7 (2 studies); KPU-02 7.5 mg/kg ip qdx5 + Taxotere Days 1, 3, 5
Method: (§1) Animals used were (exceptions are indicated for individual studies): female nude mice (nu/nu) between 5 and 6 weeks of age (˜20 g, Harlan); group size was 9-10 mice per group unless otherwise indicated.
(§2) Selected novel compounds were administered as monotherapy via the intraperitoneal (i.p.) route at the doses indicated for the individual study; for the combination studies the selected reference chemotherapy agents were injected 15-30 min prior to the compound.
(§3) Saline dilutions are used to achieve the injection concentrations used for the reference compounds.
Female nude mice (˜20 g) were implanted s.c. with 21-day release estrogen (0.25 mg) pellets 24 hours prior to the s.c. implantation with MCF-7 tumor fragments (harvested from s.c. tumors in nude mice hosts). The study then proceeded as described for the HT-29 model, using taxotere as the standard chemotherapy agent.
In this model unless otherwise noted for the individual study, the novel compounds were injected via the intraperitoneal route daily on Days 1-5, inclusive (qdx5); taxotere was administered intravenously on Days 1, 3 and 5 (qodx3).
The doses of the compounds were administered on Days 1, 2, 3, 4, and 7; Taxotere was administered on Days 1, 3 and 7.

[3] = test system: MDA-231 human breast tumor; experiment: MDA-231 Human Breast Tumor Orthotopic Xenograft Model (mammary fat pad); type: in vivo, nude mice; settings: Breast MDA-231 (1 study); KPU-02 7.5 mg/kg ip Days 1, 4, 8, 11, 15 + Paclitaxel qdx5
Method: The animals used were: female nude mice (nu/ni) (MDA-231 study) or B6D2F1 (B16-F10 studies) mice between 5 and 6 weeks of age (˜20 g, Harlan); group size was 10 mice per group unless otherwise indicated.
The cell lines used were: MDA-MB-231 human breast tumor and B16-F10 murine melanoma cells.
NPI compounds were administered as monotherapy via the intraperitoneal route at the doses indicated for the individual study; for the combination studies the selected reference chemotherapy agents were injected 15-30 min prior to the NPI compound.
Female nude mice were injected in the mammary fat pad with 2×10^6 MDA-231 cells harvested from in vitro cell culture. When the tumor size reached 5 mm×5 mm (about 14-28 days) the animals were matched into treatment and control groups. The study then proceeded as described for the HT-29 model, using paclitaxel as the standard chemotherapy agent.
In this model unless otherwise noted for the individual study, the test compounds were administered via the intraperitoneal route on Days 1, 4, 8, 11 and 15 (q3dx5); paclitaxel was administered via the intraperitoneal route on Days 1-5 (qdx5).
This model involves the placement of the human tumor tissue into the mouse mammary fat pad, a surrogate of the natural environment. In this manner the possibility of a positive effect due to a specific action on the subcutaneous vascular bed is avoided.

HT-29 human colon tumor = experiment: HT-29 Human Colon Tumor Xenograft Model; type: in vivo
Method: as §2, §3
Animals were implanted subcutaneously (s.c.) by trocar with fragments of HT-29 tumors harvested from s.c. growing tumors in nude mice hosts. When the tumor size reached 5 mm×5 mm (about 10-17 days) the animals were matched into treatment and control groups. Mice were weighed twice weekly and tumor measurements were obtained using calipers twice weekly, starting on Day 1. The tumor measurements were converted to estimated mg tumor weight using the formula (W^2×L)/2. When the estimated tumor weight of the control group reached an average of 1000 mg the mice were weighed, sacrificed and the tumor removed.

[4] = test system: A549 human non small cell lung tumor; experiment: A549 Human Lung Tumor Xenograft Model; type: in vivo, nude mice; settings: Lung A549 (1 study); KPU-02 7.5 mg/kg ip qdx5 + Taxotere Days 1, 3, 5
Method: as §1, §2, §3
Animals were implanted s.c. by trocar with fragments of A549 tumors harvested from s.c. growing tumors in nude mice hosts. When the tumor size reached 5 mm×5 mm (about 10-17 days) the animals were matched into treatment and control groups.

P22 rat sarcoma [5] = type: in vivo, rats; settings: 15 mg/kg IP
Method: In contrast, blood flow in non-tumor tissues was affected to a much lesser extent at 1 hour (see FIG. 35).

[6] = test system: N202 mammary tumor vasculature; experiment: Murine syngeneic pseudo-orthotopic breast cancer model, dorsal skinfold chamber
Source text: A murine syngeneic “pseudo-orthotopic” breast cancer model was used to address these issues. […] To create the “pseudo-orthotopic milieu,” the coverslip of a dorsal skinflap chamber was removed and small pieces of mammary fatpad from donor mice were implanted into the chamber. On top of the fatpad graft, tumor spheroids containing N202 mammary tumor cells transduced with Histone (H2B)-green fluorescent protein (GFP) were applied. The use of H2B-GFP transduced cells allows for visualizing tumor growth and monitoring mitosis and apoptosis.
Fluorescence video microscopy allows for the relatively non-invasive study of tumor microcirculation in conscious mice.
Tumor area, blood flow rate, and vascular density within and surrounding the tumor were visualized. Real-time observations were recorded at various time-points using still photos and video microscopy.

[7] = test system: bovine brain microtubule protein; experiment: Tubulin polymerization assay, turbidity (Example 21); type: biochemical; settings: 5 μM in 1% DMSO
Method: Polymerization of bovine brain microtubule protein (Cytoskeleton, Inc., Denver, Colo.) was monitored by an increase in turbidity at 37° C. in microtubule buffer (80 mM PIPES, pH 6.8, 1 mM MgCl2, 1 mM EGTA, 1 mM GTP, 10% glycerol). […] Turbidity was measured as an increase in optical density at 340 nm with a thermo-controlled spectrophotometer (model 680XR microplate Reader™, Bio-Rad Laboratories).

HT-29 human colon cells = experiment: Tumor cytotoxicity assay, resazurin fluorescence, 48 h (Example 6); type: cell-based; settings: Example 23
tubulin = tubulin (Bos taurus, UniProt Q6B856); experiment: Photoaffinity labeling study of tubulin; type: binding; settings: UV 365 nm, +/- colchicine
tubulin, sequence (Q6B856 whole entry): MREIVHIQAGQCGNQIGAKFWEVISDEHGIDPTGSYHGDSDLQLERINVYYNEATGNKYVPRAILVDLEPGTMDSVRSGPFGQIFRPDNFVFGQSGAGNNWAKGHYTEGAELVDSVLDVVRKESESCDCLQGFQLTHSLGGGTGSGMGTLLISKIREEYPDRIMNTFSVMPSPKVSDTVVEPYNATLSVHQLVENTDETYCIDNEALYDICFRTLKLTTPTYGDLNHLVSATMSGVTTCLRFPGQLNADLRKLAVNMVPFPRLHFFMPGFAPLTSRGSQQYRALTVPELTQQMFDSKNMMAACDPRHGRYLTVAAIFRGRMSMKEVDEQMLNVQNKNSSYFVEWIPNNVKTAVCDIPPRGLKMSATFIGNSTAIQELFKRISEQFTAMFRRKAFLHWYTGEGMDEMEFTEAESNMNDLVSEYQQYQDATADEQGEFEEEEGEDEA
tubulin, sequence (P81947 whole entry, further chain): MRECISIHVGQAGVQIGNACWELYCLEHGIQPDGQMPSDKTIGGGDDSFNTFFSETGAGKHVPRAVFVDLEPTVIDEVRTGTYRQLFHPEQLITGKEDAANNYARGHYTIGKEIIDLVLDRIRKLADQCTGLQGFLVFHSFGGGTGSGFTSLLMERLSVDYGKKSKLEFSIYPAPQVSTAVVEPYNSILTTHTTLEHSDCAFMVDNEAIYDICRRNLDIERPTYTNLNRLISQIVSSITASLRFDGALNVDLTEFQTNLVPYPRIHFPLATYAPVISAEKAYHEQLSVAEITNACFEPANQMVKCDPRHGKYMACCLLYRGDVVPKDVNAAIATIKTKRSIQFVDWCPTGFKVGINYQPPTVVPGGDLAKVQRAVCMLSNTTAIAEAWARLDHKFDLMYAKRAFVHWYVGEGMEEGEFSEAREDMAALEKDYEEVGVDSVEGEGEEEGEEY
Source text: KPU-244 and KPU-244-B1 can both be photoactivated by UV light, resulting in covalent linkage to any protein via the photoreactive benzophenone group. In one embodiment, tubulin is photoaffinity labeled with KPU-244 or KPU-244-B1. Upon irradiation with UV light, the benzophenone group forms a free radical at the carbonyl group, followed by H-abstraction in the acceptor protein, insertion of the benzophenone radical into the abstracted site, and recombination to form the labeled protein.
UV-irradiated and control samples were visualized by 15% SDS-PAGE followed by Western blotting. Biotin-labeled molecular weight markers (Amersham Pharmacia Biotech) were included in each gel. Each gel was electroblotted onto a nitrocellulose membrane (Hybond-ECL, Amersham Pharmacia). The gels were then stained with Coomassie Brilliant Blue (Bio-Rad laboratories) to verify that equivalent amounts of tubulin were loaded in each lane. The nitrocellulose membrane was incubated with 5% skim milk in 100 mM phosphate-buffered saline (PBS, pH 7.4) at room temperature for 1 hour, then washed with 100 mM PBS (pH 7.4) containing 0.1% Tween 20 (PBS-T) for 20 min one time, then twice for 10 min each. The membrane was then incubated with streptavidin-horseradish peroxidase conjugate (diluted 1000-fold with PBS-T) for 1 hour at room temperature, and washed with PBS-T as described above. […]

CC(C)(C)c1[nH]cnc1/C=c1\[nH]c(=O)/c(=C/c2ccccc2)[nH]c1=O [KPU-02]
MT nucleation (MAP-rich microtubules): did not affect MT nucleation
tubulin depolymerization in HuVEC cells (HuVEC cells): rapidly induce tubulin depolymerization
tumor necrosis (P22 rat sarcoma [1]): dose-dependent tumor necrosis
MT dynamic instability [2]: did not have a measurable effect on MT dynamic instability
mitotic cells containing asters or foci of tubulin (MCF7 cells): 75%
Tumor Regression (#/total) NPI + Reference (MCF-7 human breast tumor): 3/20
Tumor Growth Inhibition (%) KPU-02 + Reference [3]: 71%
Tumor Regression (#/total) NPI + Reference [3]: 0/10
Tumor Regression (#/total) NPI + Reference (HT-29 human colon tumor; ip, 7.5 mg/kg): 4/30
dose-dependent effect in the HT-29 model (HT-29 human colon tumor; with CPT-11): 7.5 mg/kg was statistically greater than 2.5 mg/kg
Tumor Growth Inhibition (%) KPU-02 + Reference [4]: 74%
Tumor Regression (#/total) NPI + Reference [4]: 0/10
tumor blood flow (P22 rat sarcoma [5]; 1 hour after administration): 23 % of vehicle
tumor blood flow (P22 rat sarcoma [5]; 24 hours later): 59 % vehicle
tolerability ([6]; i.v. infusion 5-10 mg/kg): well tolerated
effect on tumor vasculature ([6]; single i.v. treatment): rapid collapse of the central vasculature

CC(C)(C)c1ocnc1/C=c1\[nH]c(=O)/c(=C/c2cccc(C(=O)c3ccc(CNC(=O)CCCC[C@@H]4SC[C@@H]5NC(=O)N[C@@H]54)cc3)c2)[nH]c1=O [KPU-244-B1]
tubulin polymerization [7]: inhibit tubulin polymerization
pIC50 (HT-29 human colon cells): 6.04
binding to tubulin by photoaffinity labeling (tubulin): selectively binds and covalently reacts with tubulin at the colchicine binding site
